Tested on: HCV 1b genotype replicon
Experiment: HCV genotype-1b replicon assay (qRT-PCR or luciferase)
Assay type: cell-based
Details: Hepatitis C virus, HCV 1b replicon cell lines (SGR 11-7 or Huh-luc/neo-ET), a/b entries tested as mixture of the two compounds, read-out: Genotype-1b replicon EC50 Range
Excerpt: HCV replicon cell lines (kindly provided by R. Bartenschlager) isolated from colonies as described by Lohman et. al. (Lohman et al. (1999) Science 285: 110-113, expressly incorporated by reference in its entirety) and used for all experiments. The HCV replicon has the nucleic acid sequence set forth in EMBL Accession No.: AJ242651, the coding sequence of which is from nucleotides 1801 to 8406.
The coding sequence of the published HCV replicon was synthesized and subsequently assembled in a modified plasmid pBR322 (Promega, Madison, Wis.) using standard molecular biology techniques. […]
EC50 values of single agent compounds and combinations were determined by HCV RNA detection using quantitative RT-PCR, according to the manufacturer's instructions, with a TAQMAN® One-Step RT-PCR Master Mix Reagents Kit (Cat# AB 4309169, Applied Biosystems) on an ABI Model 7500 thermocycler. The TaqMan primers used for detecting and quantifying HCV RNA were obtained from Integrated DNA Technologies. HCV RNA was normalized to GAPDH RNA levels in drug-treated cells, which was detected and quantified using the Human GAPDH Endogenous Control Mix (Applied Biosystems, AB 4310884E). […] Chemical agent cytotoxicity was evaluated using an MTS assay according to the manufacturer's directions (Promega). […]

COC(=O)N[C@H](C(=O)N1CCC(c2nc(-c3ccc(-c4ccc(-c5c[nH]c([C@@H]6CCCN6C(=O)[C@@H](NC(=O)OC)C(C)C)n5)cc4)cc3)c[nH]2)C1)C(C)C (some centres unmarked) [Example 345]
EC50: < 1 nM

COC(=O)N[C@H](C(=O)N1CCC(c2nc3cc(-c4ccc(-c5c[nH]c([C@@H]6CCCN6C(=O)[C@@H](NC(=O)OC)C(C)C)n5)cc4)ccc3[nH]2)C1)C(C)C (some centres unmarked) [Example 343]
EC50: 1 to 10 nM

From patent publication US8927709B2, “Hepatitis C virus inhibitors” (Enanta Pharmaceuticals, Inc., priority 2009, dated 2015)
